Structures can show the parent of a compound that is named as a salt.
Tested on: human pulmonary artery endothelial cells (HPAEC)
Assay: Tube formation assay of test differentiated cells co-cultured with HPAEC
Type: cell-based
Conditions: co-culture of HPAEC and test differentiated cells, 1 μM imatinib mesylate, FIG. 2
Method: Next, test differentiated cells were further characterized with a tube formation assay using the following protocol. Test differentiated cells were co-cultured with human pulmonary artery endothelial cells (HPAEC) with or without 1 μM imatinib mesylate to inhibit angiogenesis, and tube formation was observed. Specifically, the wells of 96-well plates (Costar, Product No. 387) were coated with 30 μL of Matrigel® GFR. Plates were spun for 1 minute at 1,500 rotations per minute (RPM) and incubated for 30 minutes at 30° C. Cells were then lifted from culture plates, counted and resuspended in DMEM/F12 media such that 30 μL of media was available for each well. Each well received 30,000 HPAEC and 5,000 differentiated cells.
Green labeling of HPAEC was performed using Nuclight Green Lentivirus, Essen/Sartorius #4475. 100 μL of transfection reagent was added to 5 mL of media and mixed. In another 5 mL of media, 10 μL of needed lentivirus was added and mixed. Both 5 mL preparations were then added together, mixed, and added to an approximately 70% confluent plate of HPAEC or pericytes. Plates were allowed grow overnight in incubator.
Media and lentivirus preparation was removed and replaced with fresh media, and plates were incubated overnight. Plates were incubated for one week, using 1 μg of puromycin in the media for daily media changes […]

Cc1ccc(NC(=O)c2ccc(CN3CCN(C)CC3)cc2)cc1Nc1nccc(-c2cccnc2)n1 [imatinib mesylate]
tube formation and co-localization with HPAEC: did not
